{"source": "patent US20030235543A1", "about": "“Topical administration of pharmacologically active bases for skin lightening” (priority 2002, published 2003)", "key": {"[1]": {"test": "In vitro keratolysis study: release of protein from ground callus (BioRad protein assay)", "details": "for Protein release compared with glycolic acid, other bases / water control: 10 minutes (Example 7); for Protein release compared with glycolic acid / water control: all time points (Example 6)", "protocol": "An in vitro keratolysis study was performed to compare the capability of glycolic acid and a base for removing protein from stratum corneum. Adult foot callus was collected, grounded and the portion between 50-80 mesh was used. Glycolic acid and sodium hydroxide solutions (concentration=0.05 M) were prepared in distilled water. Ten mg of ground callus powder was place in a test tube. Four ml of a test chemical was added to the callus and the test tube was placed in a shaker and incubated in a water bath at 37° C. for a predetermined incubation time. The incubation time periods were 10 min., 40 min, 2 hours, 4 hours, 6 hours and 24 hours. Six samples of each base were tested a total of six times each at each of the aforementioned incubation time periods.\nAt the end of each incubation period, the test tube was removed from the shaker and the test tube was centrifuged. The solution was removed and filtered, and the protein in the solution was then determined using a BioRad® protein assay kit."}, "[2]": {"details": "cited from earlier work; for Alkalinity / base strength in words: aqueous solution"}, "[3]": {"details": "cited from earlier work"}, "[4]": {"test": "In vitro keratolysis study: release of protein from ground callus (BioRad protein assay)", "details": "incubation 40 minutes (Table 3)"}, "[5]": {"details": "0.05 M solutions, incubation time 10 minutes (Table 2, Example 7)"}, "[6]": {"details": "0.05 M solution, 37° C., incubation 10 min (Table 1)"}, "[7]": {"details": "0.05 M solution, 37° C., incubation 40 min (Table 1)"}, "[8]": {"details": "0.05 M solution, 37° C., incubation 2 hours (Table 1)"}, "[9]": {"details": "0.05 M solution, 37° C., incubation 4 hours (Table 1)"}, "[10]": {"details": "0.05 M solution, 37° C., incubation 6 hours (Table 1)"}, "[11]": {"details": "0.05 M solution, 37° C., incubation 24 hours (Table 1)"}}, "note": "Where two headings read alike, the source gives them in different places."}
{"smiles": "CCC(N)CO", "note": "(centres unmarked) [2-amino-1-butanol]", "values": [{"measurement": "Amount of Protein Released", "setting": "[1]; [5]", "value": 0.174, "unit": "mg/4 ml"}]}
{"smiles": "CC(N)(CO)CO", "note": "[2-amino-2-methyl-1,3-propanediol]", "values": [{"measurement": "pH of Aqueous Solution (concentration)", "setting": "[2]; 0.1 m", "value": "10.8 (0.1 m)"}]}
{"smiles": "CC(C)(N)CO", "note": "[2-amino-2-methyl-1-propanol]", "values": [{"measurement": "pH of Aqueous Solution (concentration)", "setting": "[2]; 0.1 m", "value": "11.3 (0.1 m)"}]}
{"smiles": "N", "note": "[Ammonium hydroxide]", "values": [{"measurement": "pH of Aqueous Solution (concentration)", "setting": "[2]; 0.001 N", "value": 10.27}, {"measurement": "pH of Aqueous Solution (concentration)", "setting": "[2]; 1 N", "value": 11.27}]}
{"smiles": "N.N.O=P(O)(O)O", "note": "[Ammonium phosphate, dibasic]", "values": [{"measurement": "pH of Aqueous Solution (concentration)", "setting": "[2]; concentration not given", "value": "˜8"}]}
{"smiles": "N=C(N)NCCC[C@H](N)C(=O)O", "note": "[Arginine]", "values": [{"measurement": "Amount of Protein Released", "setting": "[1]; [5]", "value": 0.153, "unit": "mg/4 ml"}]}
{"smiles": "C[N+](C)(C)CC(=O)O", "note": "[Betaine]", "values": [{"measurement": "Amount of Protein Released", "setting": "[1]; [5]", "value": 0.144, "unit": "mg/4 ml"}]}
{"smiles": "[O]=[Ca]", "note": "[Calcium oxide]", "values": [{"measurement": "Solubility in water", "setting": "[3]", "value": "Soluble in water, Form Ca(OH)2"}]}
{"smiles": "NC1CCCCC1", "note": "[Cyclohexylamine]", "values": [{"measurement": "Alkalinity / base strength in words", "setting": "[2]", "value": "Strong base"}]}
{"smiles": "OCCNCCO", "note": "[Diethanolamine]", "values": [{"measurement": "Amount of Protein Released", "setting": "[1]; [5]", "value": 0.144, "unit": "mg/4 ml"}, {"measurement": "pH of Aqueous Solution (concentration)", "setting": "[2]; 0.1 N", "value": "11.0 (0.1 N)"}]}
{"smiles": "NCCN", "note": "[Ethylenediamine]", "values": [{"measurement": "Alkalinity / base strength in words", "setting": "[2]", "value": "Strong base"}, {"measurement": "Amount of Protein Released", "setting": "[4]; 0.005% solution", "value": 0.059, "unit": "mg/4 ml"}, {"measurement": "Amount of Protein Released", "setting": "[4]; 0.01% solution", "value": 0.080, "unit": "mg/4 ml"}]}
{"smiles": "O=C(O)CO", "note": "[Glycolic Acid, reference compound]", "values": [{"measurement": "Amount of Protein Released", "setting": "[1]; [6]", "value": 0.093, "unit": "mg/4 ml"}, {"measurement": "Amount of Protein Released", "setting": "[1]; [7]", "value": 0.175, "unit": "mg/4 ml"}, {"measurement": "Amount of Protein Released", "setting": "[1]; [8]", "value": 0.126, "unit": "mg/4 ml"}, {"measurement": "Amount of Protein Released", "setting": "[1]; [9]", "value": 0.219, "unit": "mg/4 ml"}, {"measurement": "Amount of Protein Released", "setting": "[1]; [10]", "value": 0.089, "unit": "mg/4 ml"}, {"measurement": "Amount of Protein Released", "setting": "[1]; [11]", "value": 0.173, "unit": "mg/4 ml"}, {"measurement": "Amount of Protein Released", "setting": "[1]; [5]", "value": 0.187, "unit": "mg/4 ml"}, {"measurement": "Protein release compared with glycolic acid, other bases / water control", "setting": "[1]; 0.05 M", "value": "did not show significant differences in comparison with water"}, {"measurement": "Protein release compared with glycolic acid / water control", "setting": "[1]; 0.05 M", "value": "did not show statistical differences in comparison with water"}]}
{"smiles": "N[C@@H](Cc1c[nH]c2ccccc12)C(=O)O", "note": "[L-tryptophan]", "values": [{"measurement": "Amount of Protein Released", "setting": "[1]; [5]", "value": 0.170, "unit": "mg/4 ml"}]}
{"smiles": "[O]=[Mg]", "note": "[Magnesium oxide]", "values": [{"measurement": "pH of Aqueous Solution (concentration)", "setting": "[2]; saturated solution in water", "value": "10.3 (saturated aqueous solution)"}]}
{"smiles": "[Na+].[OH-]", "note": "[NaOH, Sodium hydroxide]", "values": [{"measurement": "Protein released at 6 hours and 24 hours compared with 10 minutes, 40 minutes, 2 hours and 4 hours", "setting": "[1]; 0.05 M", "value": "significantly higher"}, {"measurement": "Amount of Protein Released", "setting": "[1]; [6]", "value": 0.419, "unit": "mg/4 ml"}, {"measurement": "Amount of Protein Released", "setting": "[1]; [7]", "value": 0.739, "unit": "mg/4 ml"}, {"measurement": "Amount of Protein Released", "setting": "[1]; [8]", "value": 0.899, "unit": "mg/4 ml"}, {"measurement": "Amount of Protein Released", "setting": "[1]; [9]", "value": 1.003, "unit": "mg/4 ml"}, {"measurement": "Amount of Protein Released", "setting": "[1]; [10]", "value": 4.853, "unit": "mg/4 ml"}, {"measurement": "Amount of Protein Released", "setting": "[1]; [11]", "value": 5.148, "unit": "mg/4 ml"}, {"measurement": "Amount of Protein Released", "setting": "[1]; [5]", "value": 0.544, "unit": "mg/4 ml"}, {"measurement": "Protein release compared with glycolic acid, other bases / water control", "setting": "[1]; 0.05 M", "value": "released more protein"}, {"measurement": "Protein release compared with glycolic acid / water control", "setting": "[1]; 0.05 M", "value": "released more protein"}, {"measurement": "pH of Aqueous Solution (concentration)", "setting": "[2]; 0.05%", "value": 12}, {"measurement": "pH of Aqueous Solution (concentration)", "setting": "[2]; 0.5%", "value": 13}, {"measurement": "pH of Aqueous Solution (concentration)", "setting": "[2]; 5%", "value": 14}, {"measurement": "Amount of Protein Released", "setting": "[4]; 0.005% solution", "value": 0.059, "unit": "mg/4 ml"}, {"measurement": "Amount of Protein Released", "setting": "[4]; 0.01% solution", "value": 0.074, "unit": "mg/4 ml"}]}
{"smiles": "NCCc1ccccc1", "note": "[Phenethylamine]", "values": [{"measurement": "Alkalinity / base strength in words", "setting": "[2]", "value": "Strong base"}]}
{"smiles": "C1CCNCC1", "note": "[Piperidine]", "values": [{"measurement": "Alkalinity / base strength in words", "setting": "[2]", "value": "Strong base"}, {"measurement": "Amount of Protein Released", "setting": "[4]; 0.005% solution", "value": 0.066, "unit": "mg/4 ml"}, {"measurement": "Amount of Protein Released", "setting": "[4]; 0.01% solution", "value": 0.071, "unit": "mg/4 ml"}]}
{"smiles": "CC(=O)[O-].[K+]", "note": "[Potassium acetate]", "values": [{"measurement": "Amount of Protein Released", "setting": "[4]; 0.005% solution", "value": 0.060, "unit": "mg/4 ml"}, {"measurement": "Amount of Protein Released", "setting": "[4]; 0.01% solution", "value": 0.064, "unit": "mg/4 ml"}]}
{"smiles": "O=C([O-])[O-].[K+].[K+]", "note": "[Potassium carbonate]", "values": [{"measurement": "Amount of Protein Released", "setting": "[4]; 0.005% solution", "value": 0.068, "unit": "mg/4 ml"}, {"measurement": "Amount of Protein Released", "setting": "[4]; 0.01% solution", "value": 0.073, "unit": "mg/4 ml"}]}
{"smiles": "O=C([O-])CC(O)(CC(=O)[O-])C(=O)[O-].[K+].[K+].[K+]", "note": "[Potassium citrate]", "values": [{"measurement": "pH of Aqueous Solution (concentration)", "setting": "[2]; concentration not given", "value": "˜8.5"}]}
{"smiles": "O=P([O-])([O-])O.[K+].[K+]", "note": "[Potassium phosphate, dibasic]", "values": [{"measurement": "Alkalinity / base strength in words", "setting": "[2]", "value": "Aqueous solution is slightly alkaline"}]}
{"smiles": "C1CCNC1", "note": "[Pyrrolidine]", "values": [{"measurement": "Alkalinity / base strength in words", "setting": "[2]", "value": "Strong base"}, {"measurement": "Amount of Protein Released", "setting": "[4]; 0.005% solution", "value": 0.060, "unit": "mg/4 ml"}, {"measurement": "Amount of Protein Released", "setting": "[4]; 0.01% solution", "value": 0.066, "unit": "mg/4 ml"}]}
{"smiles": "CC(=O)[O-].[Na+]", "note": "[Sodium acetate, anhydrous]", "values": [{"measurement": "pH of Aqueous Solution (concentration)", "setting": "[2]; 0.1 N", "value": "˜8.9 (0.1 N)"}]}
{"smiles": "O=C([O-])[O-].[Na+].[Na+]", "note": "[Sodium carbonate anhydrous]", "values": [{"measurement": "pH of Aqueous Solution (concentration)", "setting": "[2]; concentration not given", "value": "˜11.6"}]}
{"smiles": "O=B[O-].[Na+]", "note": "[Sodium metaborate]", "values": [{"measurement": "Alkalinity / base strength in words", "setting": "[2]", "value": "Strongly alkaline"}]}
{"smiles": "O=P([O-])([O-])O.[Na+].[Na+]", "note": "[Sodium phosphate, dibasic, anhydrous]", "values": [{"measurement": "pH of Aqueous Solution (concentration)", "setting": "[2]; 1% (1.0%)", "value": "9.1 (1%)"}]}
{"smiles": "O.O.O=P([O-])([O-])O.[Na+].[Na+]", "note": "[Sodium phosphate, dibasic, dihydrate]", "values": [{"measurement": "pH of Aqueous Solution (concentration)", "setting": "[2]; concentration not given", "value": "˜9.5"}]}
{"smiles": "O.O.O.O.O.O.O.O.O.O.O.O.O=P([O-])([O-])O.[Na+].[Na+]", "note": "[Sodium phosphate, dibasic, dodecahydrate]", "values": [{"measurement": "pH of Aqueous Solution (concentration)", "setting": "[2]; concentration not given", "value": "˜9.5"}]}
{"smiles": "O.O.O.O.O.O.O.O=P([O-])([O-])O.[Na+].[Na+]", "note": "[Sodium phosphate, dibasic, heptahydrate]", "values": [{"measurement": "pH of Aqueous Solution (concentration)", "setting": "[2]; concentration not given", "value": "˜9.5"}]}
{"smiles": "O=P([O-])([O-])O.[Na+].[Na+]", "note": "[Sodium phosphate, dibasic]", "values": [{"measurement": "pH of Aqueous Solution (concentration)", "setting": "[2]; concentration not given", "value": "˜9.5"}]}
{"smiles": "O.O.O.O.O.O.O.O.O.O.O.O.O=P([O-])([O-])[O-].[Na+].[Na+].[Na+]", "note": "[Sodium phosphate, tribasic dodecahydrate]", "values": [{"measurement": "pH of Aqueous Solution (concentration)", "setting": "[2]; 0.1%", "value": 11.5}, {"measurement": "pH of Aqueous Solution (concentration)", "setting": "[2]; 0.5%", "value": 11.7}, {"measurement": "pH of Aqueous Solution (concentration)", "setting": "[2]; 1% (1.0%)", "value": 11.9}]}
{"smiles": "O=P([O-])([O-])[O-].[Na+].[Na+].[Na+]", "note": "[Sodium phosphate, tribasic]", "values": [{"measurement": "Amount of Protein Released", "setting": "[4]; 0.005% solution", "value": 0.048, "unit": "mg/4 ml"}, {"measurement": "Amount of Protein Released", "setting": "[4]; 0.01% solution", "value": 0.050, "unit": "mg/4 ml"}]}
{"smiles": "CN(C)C", "note": "[Trimethylamine]", "values": [{"measurement": "Alkalinity / base strength in words", "setting": "[2]", "value": "Strong base"}]}
